# Results as given in US20100047246A1, “Methods and Compositions for Treating Vascular Disease” (The General Hospital Corporation, priority 2006, published 2010).
# Experiments:
# [1] = tested on: scl expression in the ICM; test: scl RNA in situ hybridization in injected embryos; type: in vivo, zebrafish; settings: d522 0.3 mM, 0.4 mM, 0.5 mM, 20 hpf, RNA in situ analysis
# From the text: FIG. 3. Antisense lycat morpholinos mimic the cloche mutant phenotype and lycat mRNA rescues morpholino mediated knockdown.
# (§1) Four morpholinos were synthesized: three anti-sense morpholinos targeting the zebrafish lycat ATG site (atg): […] (SEQ ID NO:5); the second splicing donor site (d322): […] (SEQ ID NO:6); the third splicing donor site (d522): […] (SEQ ID NO:7); and a control morpholino (a345): […] (SEQ ID NO:8) (Gene Tools, LLC). Zebrafish lycat and mouse lycat were cloned into the pCS2 vector, and capped mRNA was synthesized using mRNA in vitro transcription kits (Ambion Inc., Austin, Tex.). Morpholinos and mRNA were injected into one- or two-cell stage wild-type, clo^fv087b; Tg(flk1:GFP) or clo^fv087b; Tg(gata1:GFP) embryos. Injected embryos were incubated at 28.5° C. for examination of phenotypes or were fixed for in situ hybridization. The bright-field pictures were taken using a Zeiss M12 dissecting microscope, and the fluorescence pictures were taken with a Zeiss Stemi SVII Apo fluorescence microscope.
# In situ hybridization and antibody staining were done in the presence of blocking solution (Roche, Basil, Switzerland), in the RNA hybridization solution, and antibody staining solution (Schulte-Merker, Looking at embryos, 2002). […]
# Tg(flk1:GFP) embryos = test: lycat morpholino and mRNA injections, cloche phenotype and GFP scoring in transgenic embryos; type: in vivo, zebrafish; settings: for flk1:GFP signals in vessels: 24 hpf; for flk1:GFP signals in vessels / gata1:GFP signal in the blood islands: a345 control, lycat RNA 300 ng/ul; for flk1:GFP signals in vessels / gata1:GFP signal in the blood islands / Wild-type (phenotype), number of embryos / clo (phenotype), number of embryos: d522 0.3 mM; for gata1:GFP signal in the blood islands: gata1:GFP embryos; for Wild-type (phenotype), number of embryos / clo (phenotype), number of embryos: injected into 1- to 2-cell stage Tg(flk1:GFP) embryos, scored at 36 hpf and 48 hpf, a345 0.5 mM, Lycat RNA 0.3 μg/μl
# Protocol: The cloche alleles, clo^m39 and clo^m378 have been previously described (Stainier et al., Development 121:3141, 1995; Stainier et al., Development 123:285, 1996). A new ENU-induced allele, clo^fv087b was also used. Genetic mapping of cloche was carried out using hybrid F1 (Clo^m39×TL, clo^m378×TL, clo^fv087b×WIK). Transgenic lines Tg(flk1:GFP) and Tg(gata1:GFP) (Long et al., Proc. Natl. Acad. Sci. U.S.A. 94:6267, 1997; Cross et al., ArterioScler. Thromb. Vasc. Biol. 23:911, 2003), were crossed with heterozygous clo^fv087b fish to generate transgenic clo^fv087b individuals. Examining cloche phenotypes and the GFP expression of embryos from sibling crossings identified heterozygous clo^fv087b/+ fish with the Tg(flk1:GFP) or Tg(gata1:GFP).
# as §1
Substance,scl expression in the ICM [1],scl expression in the ICM ([1]; listed as lycat morpholino),"injected embryos showing a clear cloche phenotype (lack blood cells, vascular endothelium, endocardium) (Tg(flk1:GFP) embryos; 0.3 mM d522, 5 nl, Tg(flk1:GFP) embryos, 36 hpf and 48 hpf, 132 out of 150) [%]",flk1:GFP signals in vessels (Tg(flk1:GFP) embryos),gata1:GFP signal in the blood islands (Tg(flk1:GFP) embryos),"Wild-type (phenotype), number of embryos (Tg(flk1:GFP) embryos)","clo (phenotype), number of embryos (Tg(flk1:GFP) embryos)"
d522: anti-sense morpholino targeting zebrafish lycat third splicing donor site: CTGAACACACACACTGACCGAAGC (SEQ ID NO:7) (all phosphorodiamidate morpholino (PMO)),decreased scl,reduces expression of Scl in the intermediate cell mass (ICM) in a dose-dependent manner,88,very little flk1:GFP signals,very little gata1:GFP signal,18,132
a345: control morpholino: GCAGCGGGCACTGCTGGTGGAAGT (SEQ ID NO:8) (all phosphorodiamidate morpholino (PMO)) [reference compound],,,,strong flk1:GFP signals,strong gata1:GFP signal,65,0
